In ChEMBL document CHEMBL2331138, “Isolation and structures of axistatins 1-3 from the Republic of Palau marine sponge Agelas axifera Hentschel ” (2013):
Values after ≈ are worked out from the molar mass of the structure shown. Active and inactive are the calls of the source. No cut-off for these calls is given here.

Tests used:
SF-268 = assay: Growth inhibition of human SF268 cells after 48 hrs by SRB assay; type: functional; settings: SF-268, 48 h
P388 = assay: Growth inhibition of mouse P388 cells after 48 hrs by Z1 Coulter particle counting; type: functional; settings: P388, 48 h, read-out: ED50 (the source's name)
BXPC-3 = assay: Growth inhibition of human BxPC3 cells after 48 hrs by SRB assay; type: functional; settings: BXPC-3, 48 h
Staphylococcus aureus [1] = assay: Antimicrobial activity against Staphylococcus aureus ATCC 29213 assessed as growth inhibition at 64 ug/mL by NCCLS broth microdilution assay; type: functional, organism-based
Cryptococcus neoformans [2] = assay: Antimicrobial activity against Cryptococcus neoformans ATCC 90112 assessed as growth inhibition at 64 ug/mL by NCCLS broth microdilution assay; type: functional, organism-based
Neisseria gonorrhoeae [3] = assay: Antimicrobial activity against Neisseria gonorrhoeae ATCC 49226 assessed as growth inhibition at 64 ug/mL by NCCLS broth microdilution assay; type: functional, organism-based
MCF7 = assay: Growth inhibition of human MCF7 cells after 48 hrs by SRB assay; type: functional; settings: MCF7, 48 h
Enterococcus faecalis [4] = assay: Antimicrobial activity against Enterococcus faecalis ATCC 29212 assessed as growth inhibition at 64 ug/mL by NCCLS broth microdilution assay; type: functional, organism-based
Enterobacter cloacae [5] = assay: Antimicrobial activity against Enterobacter cloacae ATCC 13047 assessed as growth inhibition at 64 ug/mL by NCCLS broth microdilution assay; type: functional, organism-based
NCI-H460 = assay: Growth inhibition of human NCI-H460 cells after 48 hrs by SRB assay; type: functional; settings: NCI-H460, 48 h
Candida albicans [6] = assay: Antimicrobial activity against Candida albicans ATCC 90028 assessed as growth inhibition at 64 ug/mL by NCCLS broth microdilution assay; type: functional, organism-based
DU-145 = assay: Growth inhibition of human DU145 cells after 48 hrs by SRB assay; type: functional; settings: DU-145, 48 h
Micrococcus luteus [7] = assay: Antimicrobial activity against Micrococcus luteus Presque Isle 456 assessed as growth inhibition at 64 ug/mL by NCCLS broth microdilution assay; type: functional, organism-based
Escherichia coli [8] = assay: Antimicrobial activity against Escherichia coli ATCC 25922 assessed as growth inhibition at 64 ug/mL by NCCLS broth microdilution assay; type: functional, organism-based
Streptococcus pneumoniae [9] = assay: Antimicrobial activity against Streptococcus pneumoniae ATCC 6303 assessed as growth inhibition at 64 ug/mL by NCCLS broth microdilution assay; type: functional, organism-based
[10] = tested on: Stenotrophomonas maltophilia; assay: Antimicrobial activity against Stenotrophomonas maltophilia ATCC 13637 assessed as growth inhibition at 64 ug/mL by NCCLS broth microdilution assay; type: functional, organism-based
KM-20L2 = assay: Growth inhibition of human KM20L2 cells after 48 hrs by SRB assay; type: functional; settings: KM-20L2, 48 h
Streptococcus pneumoniae [11] = assay: Antimicrobial activity against Streptococcus pneumoniae ATCC 6303 by NCCLS broth microdilution assay; type: functional
Micrococcus luteus [12] = assay: Antimicrobial activity against Micrococcus luteus Presque Isle 456 by NCCLS broth microdilution assay; type: functional
Neisseria gonorrhoeae [13] = assay: Antimicrobial activity against Neisseria gonorrhoeae ATCC 49226 by NCCLS broth microdilution assay; type: functional
Enterococcus faecalis [14] = assay: Antimicrobial activity against Enterococcus faecalis ATCC 29212 by NCCLS broth microdilution assay; type: functional
Staphylococcus aureus [15] = assay: Antimicrobial activity against Staphylococcus aureus ATCC 29213 by NCCLS broth microdilution assay; type: functional
Candida albicans [16] = assay: Antimicrobial activity against Candida albicans ATCC 90028 by NCCLS broth microdilution assay; type: functional
Cryptococcus neoformans [17] = assay: Antimicrobial activity against Cryptococcus neoformans ATCC 90112 by NCCLS broth microdilution assay; type: functional
Enterobacter cloacae [18] = assay: Antimicrobial activity against Enterobacter cloacae ATCC 13047 by NCCLS broth microdilution assay; type: functional
Escherichia coli [19] = assay: Antimicrobial activity against Escherichia coli ATCC 25922 by NCCLS broth microdilution assay; type: functional
[20] = tested on: Stenotrophomonas maltophilia; assay: Antimicrobial activity against Stenotrophomonas maltophilia ATCC 13637 by NCCLS broth microdilution assay; type: functional

EC50 (P388) | GI50 (BXPC-3) | GI50 (MCF7) | GI50 (NCI-H460) | GI50 (DU-145) | MIC (Streptococcus pneumoniae [11]) | MIC (Micrococcus luteus [12]) | MIC (Neisseria gonorrhoeae [13]) | MIC (Enterococcus faecalis [14]) | MIC (Staphylococcus aureus [15]) | MIC (Cryptococcus neoformans [17]) | SMILES | GI50 (SF-268) | growth inhibition (GI) (Cryptococcus neoformans [2]) | growth inhibition (GI) (Enterobacter cloacae [5]) | growth inhibition (GI) (Candida albicans [6]) | growth inhibition (GI) (Escherichia coli [8]) | growth inhibition (GI) [10] | GI50 (KM-20L2) | further results
> 18.2 µM | 4 µM | 3.1 µM | 3.6 µM | 4.6 µM | – | – | – | – | – | – | CNc1ncnc(N)c1N(C=O)C/C=C(\C)CC[C@]1(C)[C@@H](C)CC[C@@]2(C)C(COC(=O)c3ccc[nH]3)=CCC[C@@H]12 | 3.1 µM | inactive | inactive | inactive | inactive | inactive | 2.9 µM | growth inhibition (GI) (Staphylococcus aureus [1]): inactive; growth inhibition (GI) (Neisseria gonorrhoeae [3]): inactive; growth inhibition (GI) (Enterococcus faecalis [4]): inactive; growth inhibition (GI) (Micrococcus luteus [7]): inactive; growth inhibition (GI) (Streptococcus pneumoniae [9]): inactive
15.7 µM | 5.9 µM | 5.9 µM | 6.8 µM | 6.8 µM | 32 µg/mL (≈ 72.8 µM) | 4 µg/mL (≈ 9.1 µM) | 16 µg/mL (≈ 36.4 µM) | 8 µg/mL (≈ 18.2 µM) | 8 µg/mL (≈ 18.2 µM) | – | CNc1ncnc(N)c1N(C=O)C/C=C(\C)CC/C=C(\C)CC[C@@]1(C)C(C)=CCC[C@@H]1C | 3.9 µM | inactive | inactive | inactive | inactive | inactive | 7.1 µM | –
> 21.8 µM | 3.5 µM | 3.9 µM | 3.7 µM | 4.2 µM | 16 µg/mL | < 0.5 µg/mL | 2 µg/mL | 2 µg/mL | 2 µg/mL | 2 µg/mL | CC1=CCC[C@H](C)[C@@]1(C)CC/C(C)=C/CC/C(C)=C/Cn1c[n+](C)c2ncnc(N)c21.[Cl-] [AGELINE A] | 3.5 µM | – | – | – | – | – | 3.5 µM | MIC (Candida albicans [16]): 4 µg/mL; MIC (Enterobacter cloacae [18]): 32 µg/mL; MIC (Escherichia coli [19]): 32 µg/mL; MIC [20]: 16 µg/mL
19.8 µM | 4.8 µM | 5.7 µM | 4.6 µM | 4.8 µM | 8 µg/mL (≈ 18.2 µM) | 1 µg/mL (≈ 2.27 µM) | 1 µg/mL (≈ 2.27 µM) | 1 µg/mL (≈ 2.27 µM) | 1 µg/mL (≈ 2.27 µM) | 1 µg/mL (≈ 2.27 µM) | CNc1ncnc(N)c1N(C=O)C/C=C(\C)CC[C@]1(C)[C@@H](C)CC[C@@]2(C)C(C)=CCC[C@@H]12 [AXISTATIN 1] | 3.6 µM | – | inactive | inactive | inactive | inactive | 4.1 µM | –
> 22.8 µM | 5.5 µM | 6.8 µM | 4.3 µM | 5 µM | 8 µg/mL (≈ 18.2 µM) | 1 µg/mL (≈ 2.27 µM) | 2 µg/mL (≈ 4.55 µM) | 1 µg/mL (≈ 2.27 µM) | 1 µg/mL (≈ 2.27 µM) | 2 µg/mL (≈ 4.55 µM) | CNc1ncnc(N)c1N(C=O)C/C=C(\C)CC[C@@]1(C)[C@H](C)CC[C@@]2(C)C(C)=CCC[C@H]12 [AXISTATIN 2] | 3.9 µM | – | inactive | inactive | inactive | inactive | 4.1 µM | –
8.9 µM | 6 µM | 5.8 µM | 5.4 µM | 7.5 µM | 32 µg/mL (≈ 66.4 µM) | 8 µg/mL (≈ 16.6 µM) | 8 µg/mL (≈ 16.6 µM) | 8 µg/mL (≈ 16.6 µM) | 4 µg/mL (≈ 8.3 µM) | 8 µg/mL (≈ 16.6 µM) | CNc1ncnc(NC(C)C)c1N(C=O)C/C=C(\C)CC/C=C(\C)CC[C@@]1(C)C(C)=CCC[C@@H]1C [AXISTATIN 3] | 3.5 µM | – | inactive | inactive | inactive | inactive | 6.9 µM | –
